The results in this text go back to patent publication US11951185B2, “RNA constructs and uses thereof” (BioNTech SE, priority 2020, dated 2024).

A short description of series [1]: LNP formulation comparison: RNA encapsulation efficiency, apparent pKa, LNP size and polydispersity. Particulars: LNP with surrogate RNA coding for luciferase; among the screened cationic lipids. The class given is physicochemical. As to the method:
(§1) An exemplary LNP delivery system was developed to effectively and safely deliver therapeutic nucleic acids into the cytosol of various cell types after local administration in vivo. The early formulation work was performed with several promising LNP formulations and surrogate RNA coding for luciferase. The aim of the experiments was to correlate the effect of different ionizable cationic lipids on the efficacy of RNA delivery by LNPs in vivo. Formulations were compared in terms of RNA encapsulation efficiency, apparent pKa, LNP size and polydispersity.

The subject of series [2] is luciferase (Luc) RNA. In words: In vivo screening of LNP pilot batches using luciferase (Luc) RNA, intravenous administration. Particulars: on the basis of the in vivo screening studies. The procedure:
as §1
Based on this the ALC-0315/DSPC/CHOL/ALC-0159 prototype was submitted for in vivo screening. The results presented in FIG. 16 summarize the in vivo testing of two independent pilot batches using luciferase (Luc) RNA.
The formulation screening procedure described above involves intravenous administration resulting in delivery primarily to the liver. The mechanism of LNP uptake into hepatocytes is driven by binding of endogenous apolipoproteins to the LNP followed by receptor-mediated endocytosis e.g. through low density lipoprotein receptors. […] Luc expression was monitored at 4, 24, 72 and 96 hours post administration (FIG. 17).

Molecules are shown by their SMILES.

For the compound `CCCCCCCCC(CCCCCC)C(=O)OCCCCCCN(CCCCO)CCCCCCOC(=O)C(CCCCCC)CCCCCCCC` (centres unmarked) [ALC-0315, ((4-hydroxybutyl)azanediyl)bis(hexane-6,1-diyl)bis(2-hexyldecanoate)], in series [1], the “physical characteristics regarding particle size, homogeneity, and RNA encapsulation efficiency” value is recorded as “suitable physical characteristics”. Also, the “potency as cationic lipid” value in series [2] is listed as “highly potent”.
